Data from patent US20240383915A1, “OXAZEPINE COMPOUNDS AND USES THEREOF IN THE TREATMENT OF CANCER” (Genentech, Inc., priority 2021, published 2024).

Key:
KRas = KRas (Homo sapiens (Human), UniProt P01116); assay: KRas GDP HTRF (BODIPY-GDP exchange TR-FRET); assay type: biochemical
Protocol: KRAS Biochemical Assay—BODIPY-GDP Exchange TR-FRET. Biochemical compound potencies were assessed by evaluating inhibition of SOS1-mediated nucleotide exchange in KRAS G12D. The SOS1-promoted exchange of fluorescently-labeled GDP (BODIPY-GDP) was monitored by time-resolved fluorescence resonance energy transfer (TR-FRET). Compounds solubilized in DMSO were dispensed as concentration series into 384-well white assay plates. […] The reaction was initiated with the addition of 5 μL of 3 nM recombinant human SOS1 and 300 nM BODIPY-GDP in assay buffer. After a 60-minute incubation, the fluorescence was measured with excitation at 337 nm and emission at 490 and 520 nm. The TR-FRET ratio was determined as the fluorescence at 520 nm divided by the fluorescence at 490 nm multiplied by 10,000. […] The normalized TR-FRET results were plotted against compound concentration, and the data fit to a 4-parameter Hill equation to determine the IC50 values.

KRas(G12V) = KRas(G12V) (Homo sapiens (Human), UniProt P01116, G12V); assay: KRas(G12V) GDP HTRF (BODIPY-GDP exchange TR-FRET); assay type: biochemical
Sequence of KRas(G12V) (P01116-2 other isoform, or with tags, fused parts or gaps G12V): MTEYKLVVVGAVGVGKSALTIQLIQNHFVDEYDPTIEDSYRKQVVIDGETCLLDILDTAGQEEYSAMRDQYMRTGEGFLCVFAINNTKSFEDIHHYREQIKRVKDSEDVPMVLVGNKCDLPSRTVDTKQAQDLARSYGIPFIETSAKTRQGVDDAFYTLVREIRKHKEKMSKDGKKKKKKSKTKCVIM

Sequence of KRas (P01116-2 other isoform, or with tags, fused parts or gaps): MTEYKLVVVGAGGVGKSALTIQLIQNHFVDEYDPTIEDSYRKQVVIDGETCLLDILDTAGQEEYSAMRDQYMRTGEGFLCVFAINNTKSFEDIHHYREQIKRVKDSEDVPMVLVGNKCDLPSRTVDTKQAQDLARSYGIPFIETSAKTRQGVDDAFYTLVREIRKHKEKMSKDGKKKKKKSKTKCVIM

| IC50 (KRas) | IC50 (KRas(G12V)) | Structure (SMILES) |
| --- | --- | --- |
| 0.07 nM | 0.06 nM | Cc1cc(N)nc(-c2c(Cl)c3c4c(nc(OC[C@@]56CCCN5C[C@H](F)C6)nc4c2F)N([C@H](C)c2cc(F)cnc2N)CCO3)c1C(F)(F)F (atropisomer, axis not shown; (aS)) [Example 130a, 6-((R)-4-((R)-1-(2-amino-5-fluoropyridin-3-yl)ethyl)-8-chloro-10-fluoro-2-(((2R,7aS)-2-fluorotetrahydro-1H-pyrrolizin-7a(5H)-yl)methoxy)-5,6-dihydro-4H-[1,4]oxazepino[5,6,7-de]quinazolin-9-yl)-4-methyl-5-(trifluoromethyl)pyridin-2-amine] |
| 0.1 nM | 0.08 nM | Cc1cc(N)nc(-c2c(Cl)c3c4c(nc(OC[C@@H]5CC[C@H]6COCCN65)nc4c2F)N([C@H](C)c2ccnnc2N)CCO3)c1C(F)(F)F (atropisomer, axis not shown; (aS)) [Example 175, 4-((R)-1-((R)-9-(6-amino-4-methyl-3-(trifluoromethyl)pyridin-2-yl)-8-chloro-10-fluoro-2-(((6S,8aS)-hexahydro-1H-pyrrolo[2,1-c][1,4]oxazin-6-yl)methoxy)-5,6-dihydro-4H-[1,4]oxazepino[5,6,7-de]quinazolin-4-yl)ethyl)pyridazin-3-amine] |
| 6500 nM | 1200 nM | Cc1cc(N)nc(-c2c(Cl)c3c4c(nc(OC[C@@]56CCCN5C[C@H](F)C6)nc4c2F)N(C)CCO3)c1C(F)(F)F (single isomer, unassigned) [Example 41b] |
| 0.295 nM | 0.11 nM | Cc1cc(N)nc(-c2c(Cl)c3c4c(nc(OC[C@@H]5CC[C@H]6COCCN65)nc4c2F)N([C@H](C)c2cncc(N)c2)CCO3)c1C(F)(F)F (single isomer, unassigned) [Example 69a] |
| 8.3 nM | 0.49 nM | Cc1cc(N)nc(-c2c(Cl)c3c4c(nc(OC[C@@H]5CC(F)(F)CN5C)nc4c2F)N([C@H](C)c2cncc(N)c2)CCO3)c1C(F)(F)F (single isomer, unassigned) [Example 70a] |
| 830 nM | 370 nM | Cc1cc(N)nc(-c2c(Cl)c3c4c(nc(OC[C@@]56CCN5CC(F)(F)C6)nc4c2F)N([C@H](C)c2nccnc2N)CCO3)c1C(F)(F)F (single isomer, unassigned) [Example 162c] |
| 896 nM | 410 nM | Cc1cc(N)nc(-c2c(Cl)c3c4c(nc(OC[C@@]56CCN5CC(F)(F)C6)nc4c2F)N([C@H](C)c2nccnc2N)CCO3)c1C(F)(F)F (single isomer, unassigned) [Example 162d] |
| 2900 nM | 540 nM | Cc1cc(N)nc(-c2cc3ncnc4c3c(c2Cl)OCCN4Cc2cncc(N)c2)c1C(F)(F)F [Example 3, 6-(4-((5-aminopyridin-3-yl)methyl)-8-chloro-5,6-dihydro-4H-[1,4]oxazepino[5,6,7-de]quinazolin-9-yl)-4-methyl-5-(trifluoromethyl)pyridin-2-amine] |
| 10000 nM | 1400 nM | Cc1cc(N)nc(-c2cc3ncnc4c3c(c2Cl)OCCN4[C@@H](C)c2cncc(N)c2)c1C(F)(F)F [Example 4, (S)-6-(4-(1-(5-aminopyridin-3-yl)ethyl)-8-chloro-5,6-dihydro-4H-[1,4]oxazepino[5,6,7-de]quinazolin-9-yl)-4-methyl-5-(trifluoromethyl)pyridin-2-amine] |
| 6300 nM | 1300 nM | CNc1cncc(CN2CCOc3c(Cl)c(-c4nc(N)cc(C)c4C(F)(F)F)cc4ncnc2c34)c1 [Example 6, 6-(8-chloro-4-((5-(methylamino)pyridin-3-yl)methyl)-5,6-dihydro-4H-[1,4]oxazepino[5,6,7-de]quinazolin-9-yl)-4-methyl-5-(trifluoromethyl)pyridin-2-amine] |
| 2300 nM | 420 nM | Cc1cc(N)nc(-c2cc3nc(OC[C@]45CCCN4CC(F)(F)C5)nc4c3c(c2Cl)OCCN4C)c1C(F)(F)F [Example 7, (R)-6-(8-chloro-2-((2,2-difluorotetrahydro-1H-pyrrolizin-7a(5H)-yl)methoxy)-4-methyl-5,6-dihydro-4H-[1,4]oxazepino[5,6,7-de]quinazolin-9-yl)-4-methyl-5-(trifluoromethyl)pyridin-2-amine] |
| 3900 nM | 810 nM | CN1CCOc2c(Cl)c(-c3c(F)ccc4cnn(C)c34)cc3nc(OC[C@@]45CCCN4C[C@H](F)C5)nc1c23 [Example 8, 8-chloro-9-(6-fluoro-1-methyl-1H-indazol-7-yl)-2-(((2R,7aS)-2-fluorotetrahydro-1H-pyrrolizin-7a(5H)-yl)methoxy)-4-methyl-5,6-dihydro-4H-[1,4]oxazepino[5,6,7-de]quinazoline] |
| 63000 nM | 10000 nM | Cc1cc(N)nc(-c2cc3ncnc4c3c(c2Cl)OCCN4Cc2cncc(O)c2)c1C(F)(F)F [Example 9, 5-((9-(6-amino-4-methyl-3-(trifluoromethyl)pyridin-2-yl)-8-chloro-5,6-dihydro-4H-[1,4]oxazepino[5,6,7-de]quinazolin-4-yl)methyl)pyridin-3-ol] |
| 1300 nM | 300 nM | Cc1cc(N)nc(-c2cc3nc(OC[C@@]45CCCN4CC(F)(F)C5)nc4c3c(c2Cl)OCCN4C)c1C(F)(F)F [Example 10, (S)-6-(8-chloro-2-((2,2-difluorotetrahydro-1H-pyrrolizin-7a(5H)-yl)methoxy)-4-methyl-5,6-dihydro-4H-[1,4]oxazepino[5,6,7-de]quinazolin-9-yl)-4-methyl-5-(trifluoromethyl)pyridin-2-amine] |
| 14000 nM | 1000 nM | Cc1cc(N)nc(-c2cc3ncnc4c3c(c2Cl)OCCN4C2(c3cccnc3N)CC2)c1C(F)(F)F [Example 11, 6-(4-(1-(2-aminopyridin-3-yl)cyclopropyl)-8-chloro-5,6-dihydro-4H-[1,4]oxazepino[5,6,7-de]quinazolin-9-yl)-4-methyl-5-(trifluoromethyl)pyridin-2-amine] |
| 21000 nM | 8900 nM | Cc1cc(N)nc(-c2cc3ncnc4c3c(c2Cl)OCCN4Cc2cccc(=O)[nH]2)c1C(F)(F)F [Example 12, 6-((9-(6-amino-4-methyl-3-(trifluoromethyl)pyridin-2-yl)-8-chloro-5,6-dihydro-4H-[1,4]oxazepino[5,6,7-de]quinazolin-4-yl)methyl)pyridin-2(1H)-one] |
| 36000 nM | 13000 nM | Cc1cc(N)nc(-c2cc3ncnc4c3c(c2Cl)OCCN4CCC#N)c1C(F)(F)F [Example 13, 3-(9-(6-amino-4-methyl-3-(trifluoromethyl)pyridin-2-yl)-8-chloro-5,6-dihydro-4H-[1,4]oxazepino[5,6,7-de]quinazolin-4-yl)propanenitrile] |
| 200000 nM | 21000 nM | Cc1cc(N)nc(-c2cc3ncnc4c3c(c2Cl)OCCN4CCC2COC2)c1C(F)(F)F [Example 14, 6-(8-chloro-4-(2-(oxetan-3-yl)ethyl)-5,6-dihydro-4H-[1,4]oxazepino[5,6,7-de]quinazolin-9-yl)-4-methyl-5-(trifluoromethyl)pyridin-2-amine] |
| 31000 nM | 3600 nM | Cc1cc(N)nc(-c2cc3ncnc4c3c(c2Cl)OCCN4C(C)c2cnc[nH]2)c1C(F)(F)F (centres unmarked) [Example 15, 6-(4-(1-(1H-imidazol-5-yl)ethyl)-8-chloro-5,6-dihydro-4H-[1,4]oxazepino[5,6,7-de]quinazolin-9-yl)-4-methyl-5-(trifluoromethyl)pyridin-2-amine] |
| 32000 nM | 6900 nM | Cc1cc(N)nc(-c2cc3ncnc4c3c(c2Cl)OCCN4C(C)CO)c1C(F)(F)F (centres unmarked) [Example 16, 2-(9-(6-amino-4-methyl-3-(trifluoromethyl)pyridin-2-yl)-8-chloro-5,6-dihydro-4H-[1,4]oxazepino[5,6,7-de]quinazolin-4-yl)propan-1-ol] |
| 3400 nM | 1600 nM | Cc1cc(N)nc(-c2cc3ncnc4c3c(c2Cl)OCCN4C2CCc3ccncc32)c1C(F)(F)F (centres unmarked) [Example 21, 6-(8-chloro-4-(6,7-dihydro-5H-cyclopenta[c]pyridin-7-yl)-5,6-dihydro-4H-[1,4]oxazepino[5,6,7-de]quinazolin-9-yl)-4-methyl-5-(trifluoromethyl)pyridin-2-amine] |
| 43000 nM | 11000 nM | Cc1cc(N)nc(-c2cc3ncnc4c3c(c2Cl)OCCN4Cc2ccns2)c1C(F)(F)F [Example 22, 6-(8-chloro-4-(isothiazol-5-ylmethyl)-5,6-dihydro-4H-[1,4]oxazepino[5,6,7-de]quinazolin-9-yl)-4-methyl-5-(trifluoromethyl)pyridin-2-amine] |
| 2000 nM | 510 nM | Cc1cc(N)nc(-c2cc3ncnc4c3c(c2Cl)OCCN4Cc2scnc2N)c1C(F)(F)F [Example 25, 5-((9-(6-amino-4-methyl-3-(trifluoromethyl)pyridin-2-yl)-8-chloro-5,6-dihydro-4H-[1,4]oxazepino[5,6,7-de]quinazolin-4-yl)methyl)thiazol-4-amine] |
| 1400 nM | 580 nM | Cc1cc(N)nc(-c2cc3ncnc4c3c(c2Cl)OCCN4C(C)(C)c2cccnc2N)c1C(F)(F)F [Example 27, 6-(4-(2-(2-aminopyridin-3-yl)propan-2-yl)-8-chloro-5,6-dihydro-4H-[1,4]oxazepino[5,6,7-de]quinazolin-9-yl)-4-methyl-5-(trifluoromethyl)pyridin-2-amine] |
| 7400 nM | 7400 nM | CSc1cncc(CN2CCOc3c(Cl)c(-c4nc(N)cc(C)c4C(F)(F)F)cc4ncnc2c34)c1 [Example 29, 6-(8-chloro-4-((5-(methylthio)pyridin-3-yl)methyl)-5,6-dihydro-4H-[1,4]oxazepino[5,6,7-de]quinazolin-9-yl)-4-methyl-5-(trifluoromethyl)pyridin-2-amine] |
